Results on 21 compounds are retold here after ChEMBL document CHEMBL4732245, “Synthesis and biological evaluation of novel 4,7-disubstituted coumarins as selective tumor-associated carbonic anhydrase IX and XII inhibitors” (Bioorg Med Chem Lett, 2021).

Assay [1] concerns the target T1, Carbonic anhydrase 9 (Homo sapiens, UniProt Q16790). Description: Inhibition of recombinant human carbonic anhydrase 9 preincubated for 10 mins by stopped flow CO2 hydrase assay.
The next assay has as its target Carbonic anhydrase 2 (Homo sapiens, UniProt P00918). Description: Inhibition of recombinant human carbonic anhydrase 2 pre-incubated for 10 mins by stopped flow CO2 hydrase assay.
The target in another assay is Carbonic anhydrase 1 (Homo sapiens, UniProt P00915). Description: Inhibition of recombinant human carbonic anhydrase 1 pre-incubated for 10 mins by stopped flow CO2 hydrase assay.
Carbonic anhydrase 1, sequence (P00915 whole entry): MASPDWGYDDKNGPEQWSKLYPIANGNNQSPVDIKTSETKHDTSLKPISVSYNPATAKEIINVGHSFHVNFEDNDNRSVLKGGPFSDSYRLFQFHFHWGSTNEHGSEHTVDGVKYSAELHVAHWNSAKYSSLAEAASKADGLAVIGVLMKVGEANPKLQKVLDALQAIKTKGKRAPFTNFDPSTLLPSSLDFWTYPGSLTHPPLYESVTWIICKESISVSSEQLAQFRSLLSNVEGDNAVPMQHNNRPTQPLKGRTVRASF
Another assay has as its target Carbonic anhydrase 12 (Homo sapiens, UniProt O43570). Briefly: Inhibition of recombinant human carbonic anhydrase 12 preincubated for 6 hrs at 24 degC by stopped flow CO2 hydrase assay.
The target in assay [2] is T1, Carbonic anhydrase 9. Description: Inhibition of recombinant human carbonic anhydrase 9 preincubated for 6 hrs at 24 degC by stopped flow CO2 hydrase assay.

Bounds are passed on as bounds.

Carbonic anhydrase 12, sequence (O43570 whole entry): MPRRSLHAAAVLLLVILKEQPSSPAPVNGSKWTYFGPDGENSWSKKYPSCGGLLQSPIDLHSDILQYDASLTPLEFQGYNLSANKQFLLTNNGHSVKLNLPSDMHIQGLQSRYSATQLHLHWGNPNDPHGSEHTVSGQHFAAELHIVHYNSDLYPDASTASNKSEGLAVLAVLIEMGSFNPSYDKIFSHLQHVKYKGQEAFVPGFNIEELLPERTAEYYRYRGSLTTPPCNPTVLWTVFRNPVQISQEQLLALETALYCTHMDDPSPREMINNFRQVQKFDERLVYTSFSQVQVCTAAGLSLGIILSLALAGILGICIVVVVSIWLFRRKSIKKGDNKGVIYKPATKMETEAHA

As a reminder, the Ki is the dissociation constant of the complex between target and ligand, obtained from inhibition or displacement. As to `COc1ccc(N2CCN(Cc3cc(=O)oc4cc(OCc5ccccc5[N+](=O)[O-])ccc34)CC2)cc1`, the inhibition constant Ki is 5.39 µM on Carbonic anhydrase 9 [1], more than 100 µM at Carbonic anhydrase 2 and more than 100 µM on Carbonic anhydrase 1.

In the case of `COc1cccc(COc2ccc3c(CN4CCN(Cc5ccccc5)CC4)cc(=O)oc3c2)c1`, the figures for the Ki on Carbonic anhydrase 9 [1], on Carbonic anhydrase 2 and at Carbonic anhydrase 1 were 4.9 µM, more than 100 µM and more than 100 µM, respectively.

In the case of `COc1ccc(N2CCN(Cc3cc(=O)oc4cc(OCc5ccc(Br)cc5)ccc34)CC2)cc1`, the figures for the Ki at Carbonic anhydrase 9 [1], on Carbonic anhydrase 2 and at Carbonic anhydrase 1 were 0.89 µM, more than 100 µM and more than 100 µM, respectively.

`O=c1cc(CN2CCN(Cc3ccccc3)CC2)c2ccc(OCc3cccc(Cl)c3)cc2o1`: the Ki on Carbonic anhydrase 9 [1] is 4.6 µM; on Carbonic anhydrase 2, more than 100 µM; at Carbonic anhydrase 1, more than 100 µM.

Turning to `COc1ccc(N2CCN(Cc3cc(=O)oc4cc(OCc5cccc(OC)c5)ccc34)CC2)cc1`, the Ki at Carbonic anhydrase 9 [1] is 2.55 µM; at Carbonic anhydrase 2 it was more than 100 µM; on Carbonic anhydrase 1, more than 100 µM.

As to `COc1ccc(N2CCN(Cc3cc(=O)oc4cc(OCc5cccc(Br)c5)ccc34)CC2)cc1`, the Ki at Carbonic anhydrase 9 [1] was 3.47 µM; on Carbonic anhydrase 2 it was more than 100 µM; on Carbonic anhydrase 1, more than 100 µM.

Regarding `COc1ccc(N2CCN(Cc3cc(=O)oc4cc(OCc5ccc([N+](=O)[O-])cc5)ccc34)CC2)cc1`, the Ki on Carbonic anhydrase 9 [1] was 2.66 µM; at Carbonic anhydrase 2, more than 100 µM; at Carbonic anhydrase 1, more than 100 µM.

For `COc1ccc(N2CCN(Cc3cc(=O)oc4cc(OCc5cccc(Cl)c5)ccc34)CC2)cc1`, the figures for the Ki on Carbonic anhydrase 9 [1], on Carbonic anhydrase 2 and on Carbonic anhydrase 1 were 7.29 µM, more than 100 µM and more than 100 µM, respectively.

Regarding `Cc1cc(C)cc(COc2ccc3c(CN4CCN(Cc5ccccc5)CC4)cc(=O)oc3c2)c1`, the Ki at Carbonic anhydrase 9 [1] was 0.78 µM; on Carbonic anhydrase 2, more than 100 µM; on Carbonic anhydrase 1 it was more than 100 µM.

On to `O=c1cc(CN2CCN(Cc3ccccc3)CC2)c2ccc(OCc3cccc(Br)c3)cc2o1`, for which the results for the inhibition constant (Ki) at Carbonic anhydrase 9 [1], at Carbonic anhydrase 2 and at Carbonic anhydrase 1 were 0.85 µM, more than 100 µM and more than 100 µM, respectively.

In the case of `O=c1cc(CN2CCN(Cc3ccccc3)CC2)c2ccc(OCc3cc(F)ccc3F)cc2o1`, the results for the Ki at Carbonic anhydrase 9 [1], on Carbonic anhydrase 2 and at Carbonic anhydrase 1 were 4.43 µM, more than 100 µM and more than 100 µM, respectively.

Turning to `COc1ccc(N2CCN(Cc3cc(=O)oc4cc(OCc5ccccc5)ccc34)CC2)cc1`, the Ki at Carbonic anhydrase 9 [1] is 5.52 µM; on Carbonic anhydrase 2 it was more than 100 µM; on Carbonic anhydrase 1, more than 100 µM.

As for `N#Cc1ccc(Cn2cc(COc3ccc4c(CCl)cc(=O)oc4c3)nn2)cc1`, the figures for the Ki at Carbonic anhydrase 12 and on Carbonic anhydrase 9 [2] were 624 nM and 32.7 nM, respectively.

Turning to `COc1ccc(N2CCN(Cc3cc(=O)oc4cc(OCc5ccccc5F)ccc34)CC2)cc1`, the Ki was 3.85 µM on Carbonic anhydrase 9 [1], more than 100 µM on Carbonic anhydrase 2 and more than 100 µM on Carbonic anhydrase 1.

With `O=c1cc(CN2CCN(Cc3ccccc3)CC2)c2ccc(OCc3ccccc3[N+](=O)[O-])cc2o1`, the Ki on Carbonic anhydrase 9 [1] was 0.93 µM; at Carbonic anhydrase 2, more than 100 µM; on Carbonic anhydrase 1, more than 100 µM.

On to `O=c1cc(CN2CCN(Cc3ccccc3)CC2)c2ccc(OCc3ccccc3)cc2o1`, for which the Ki at Carbonic anhydrase 9 [1] was 4.9 µM; on Carbonic anhydrase 2, more than 100 µM; at Carbonic anhydrase 1, more than 100 µM.

Take `O=c1cc(CN2CCN(Cc3ccccc3)CC2)c2ccc(OCc3ccc(Br)cc3)cc2o1`: the inhibitory constant (Ki) on Carbonic anhydrase 2 and on Carbonic anhydrase 1 was more than 100 µM in each case.

As for `O=c1cc(CN2CCN(Cc3ccccc3)CC2)c2ccc(OCc3ccc([N+](=O)[O-])cc3)cc2o1`, the Ki on Carbonic anhydrase 9 [1] is 3.16 µM; on Carbonic anhydrase 2 it was more than 100 µM; at Carbonic anhydrase 1 it was more than 100 µM.

For the compound `COc1ccc(CSc2nnc(COc3ccc4c(C)cc(=O)oc4c3)o2)cc1`, the Ki on Carbonic anhydrase 9 [1] stood at 2.34 µM.

Consider `COc1ccc(N2CCN(Cc3cc(=O)oc4cc(OCc5cc(C)cc(C)c5)ccc34)CC2)cc1`, for which the results for the Ki on Carbonic anhydrase 9 [1], on Carbonic anhydrase 2 and on Carbonic anhydrase 1 were 4.55 µM, more than 100 µM and more than 100 µM, respectively.

Regarding `O=c1cc(CN2CCN(Cc3ccccc3)CC2)c2ccc(OCc3ccccc3F)cc2o1`, the Ki on Carbonic anhydrase 9 [1] was 0.91 µM; on Carbonic anhydrase 2, more than 100 µM; at Carbonic anhydrase 1, more than 100 µM.
